Results on 46 compounds are retold here after the Kinase Knowledgebase extract (Sharma et al. 2016).

Bounds are passed on as bounds.

PIK3CG (human), sequence (P48736 whole entry, looked up): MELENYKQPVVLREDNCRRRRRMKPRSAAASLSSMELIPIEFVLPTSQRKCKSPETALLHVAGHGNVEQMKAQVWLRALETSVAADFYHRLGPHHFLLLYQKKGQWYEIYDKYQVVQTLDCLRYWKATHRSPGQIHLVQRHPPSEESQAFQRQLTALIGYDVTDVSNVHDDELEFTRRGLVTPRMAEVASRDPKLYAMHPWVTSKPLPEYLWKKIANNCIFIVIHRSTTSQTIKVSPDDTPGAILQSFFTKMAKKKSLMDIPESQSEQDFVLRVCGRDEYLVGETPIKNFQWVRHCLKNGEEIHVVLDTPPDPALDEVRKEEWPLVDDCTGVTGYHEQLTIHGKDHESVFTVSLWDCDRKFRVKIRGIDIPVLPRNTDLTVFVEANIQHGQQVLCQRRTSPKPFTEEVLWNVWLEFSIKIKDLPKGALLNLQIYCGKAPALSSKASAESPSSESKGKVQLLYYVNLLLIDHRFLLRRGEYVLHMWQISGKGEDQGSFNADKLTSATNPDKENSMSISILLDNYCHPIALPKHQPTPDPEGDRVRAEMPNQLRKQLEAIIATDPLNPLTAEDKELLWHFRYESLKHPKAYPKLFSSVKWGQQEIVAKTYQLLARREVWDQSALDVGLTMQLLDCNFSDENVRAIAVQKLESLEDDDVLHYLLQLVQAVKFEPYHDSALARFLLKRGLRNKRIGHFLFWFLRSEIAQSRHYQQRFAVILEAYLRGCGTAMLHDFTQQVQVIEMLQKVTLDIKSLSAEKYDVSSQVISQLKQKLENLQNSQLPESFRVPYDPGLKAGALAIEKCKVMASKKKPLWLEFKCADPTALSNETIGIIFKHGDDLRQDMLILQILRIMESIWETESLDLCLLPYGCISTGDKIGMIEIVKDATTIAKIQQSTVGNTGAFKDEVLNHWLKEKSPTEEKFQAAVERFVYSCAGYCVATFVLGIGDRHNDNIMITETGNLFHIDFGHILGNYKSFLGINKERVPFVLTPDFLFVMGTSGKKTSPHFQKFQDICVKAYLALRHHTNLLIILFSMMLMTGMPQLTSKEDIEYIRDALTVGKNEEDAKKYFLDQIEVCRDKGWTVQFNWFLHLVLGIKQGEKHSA

The experiment has as its target PIK3CG (human) (UniProt P48736). The experiment can be described thus: Assessment of PIK3CG Kinase Activity.
For `Cc1nc(NC(=O)COCc2ccccc2)sc1C#Cc1ccncc1`, the Ki (as a rule, the equilibrium dissociation constant of an inhibitor or competing ligand from its target) was in the range of 0.05 to 0.25 µM.

Turning to `Cc1nc(NC(=O)NCCOc2ccccc2)sc1C#Cc1cccnc1`, the inhibition constant Ki was less than 0.05 µM. Under `Cc1nc(NC(=O)NCCOc2ccccc2F)sc1C#Cc1ccncc1` stands less than 0.05 µM.

The compound `Cc1nc(NC(=O)NCCOCC2CC2)sc1C#Cc1ccc2nccn2c1` showed a Ki of less than 0.05 µM.

Consider `Cc1nc(NC(=O)NCCc2cn(CC(F)(F)F)cn2)sc1C#Cc1ccccc1`, for which the Ki is less than 0.05 µM. As for `Cc1nc(NC(=O)NCCC(=O)NCC(F)(F)F)sc1C#Cc1ccccc1`, the Ki was in the range of 0.05 to 0.25 µM.

Take `Cc1nc(NC(=O)CCCC(=O)NCC(F)F)sc1C#Cc1ccncc1`: the Ki was 0.05 to 0.25 µM. The compound `Cc1nc(NC(=O)NCCOCC2CC2)sc1C#Cc1cccnc1` returned an inhibition constant (Ki) of less than 0.05 µM.

`Cc1nc(NC(=O)NCCOCC(F)(F)F)sc1C#Cc1ccncc1` had a Ki of 0.05 to 0.25 µM. Under `CCOCCNC(=O)Nc1nc(C)c(C#Cc2ccccc2)s1` stands less than 0.05 µM; under `CC(=O)Nc1nc(C)c(C#Cc2ccncc2)s1`, less than 0.05 µM.

As to `COc1ccc(C#Cc2sc(NC(=O)NCCOCC3CC3)nc2C)nc1OC`, the Ki is less than 0.05 µM. As to `Cc1nc(NC(=O)NCCn2nnc3ccccc32)sc1C#Cc1ccncc1`, the inhibition constant (Ki) was in the range of 0.05 to 0.25 µM.

`Cc1nc(NC(=O)NCCc2cccnc2)sc1C#Cc1ccncc1` returned a Ki of less than 0.05 µM.

For `CCOC(=O)CCNC(=O)Nc1nc(C)c(C#Cc2ccncc2)s1`, the Ki is less than 0.05 µM. With `Cc1nc(NC(=O)NCCC2COCCO2)sc1C#Cc1ccncc1` (stereo unspecified), the Ki was less than 0.05 µM. Next, `Cc1nc(NC(=O)NCCOCC2CC2)sc1C#Cc1ccn(C)c(=O)c1`: 0.05 to 0.25 µM; `Cc1nc(NC(=O)NCCc2cn(CCF)cn2)sc1C#Cc1ccncc1`: less than 0.05 µM.

Regarding `CC(=O)NCC(=O)Nc1nc(C)c(C#Cc2ccncc2)s1`, the Ki is less than 0.05 µM. Consider `CC(=O)Nc1nc(C)c(C#Cc2cccnc2)s1`, for which the Ki lay in the range of 0.05 to 0.25 µM. Under `COc1ccc(C#Cc2sc(NC(=O)NC[C@H](C)C(=O)NC(C)(C)C)nc2C)cn1` stands less than 0.05 µM; under `Cc1nc(NC(=O)NCCOCC2CC2)sc1C#Cc1cncn1C`, 0.05 to 0.25 µM. Next, `Cc1nc(NC(=O)NCCC(=O)NCC(F)(F)F)sc1C#Cc1ccncc1`: less than 0.05 µM; `Cc1nc(NC(=O)NCCn2cnc(C(F)(F)F)c2)sc1C#Cc1ccncc1`: 0.05 to 0.25 µM.

For `Cc1nc(NC(=O)NCCOc2ccc(F)cc2)sc1C#Cc1ccncc1`, the Ki is less than 0.05 µM. Next, `CCc1ccc(OCCNC(=O)Nc2nc(C)c(C#Cc3ccncc3)s2)cc1`: 0.05 to 0.25 µM; `Cc1nc(NC(=O)CCC(=O)OC(C)(C)C)sc1C#Cc1ccncc1`: 0.05 to 0.25 µM; `Cc1nc(NC(=O)N2CCC(OCc3ccccc3)C2)sc1C#Cc1ccncc1` (stereo unspecified): 0.05 to 0.25 µM. Next, `Cc1nc(NC(=O)NCCC(=O)OC(C)(C)C)sc1C#Cc1ccccc1`: less than 0.05 µM; `Cc1nc(NC(=O)NCCc2cn(C(C)C)cn2)sc1C#Cc1ccncc1`: less than 0.05 µM.

Consider `COc1cc(C#Cc2sc(NC(=O)NCCOc3ccccn3)nc2C)cnc1OC`, for which the Ki was less than 0.05 µM.

Consider `CCn1cnc(CCNC(=O)Nc2nc(C)c(C#Cc3ccncc3)s2)c1Cl`, for which the Ki was less than 0.05 µM.

As for `Cc1nc(NC(=O)NCCC(=O)c2ccccc2)sc1C#Cc1ccncc1`, the inhibition constant Ki was less than 0.05 µM. Under `COc1cccc(C#Cc2sc(NC(=O)NCCOCC3CC3)nc2C)c1` stands 0.05 to 0.25 µM; under `Cc1nc(NC(=O)NCCC(=O)NC(C)C)sc1C#Cc1ccncc1`, less than 0.05 µM; under `CC(=O)Nc1nc(C)c(C#Cc2ccc(Cl)nc2)s1`, 0.05 to 0.25 µM.

As to `Cc1cc(O)nc(CCNC(=O)Nc2nc(C)c(C#Cc3ccncc3)s2)n1`, the Ki was in the range of 0.05 to 0.25 µM.

`COc1cc(C#Cc2sc(NC(=O)NCCOc3ccncc3)nc2C)cnc1OC`: the inhibition constant Ki is less than 0.05 µM. Next, `CC(=O)Nc1nc(C)c(C#Cc2cccc(F)c2)s1`: 0.05 to 0.25 µM. Regarding `CCc1cnn(CCNC(=O)Nc2nc(C)c(C#Cc3ccncc3)s2)c1`, the Ki was less than 0.05 µM.

`Cc1nc(NC(=O)CCCc2cc[nH]c2)sc1C#Cc1ccncc1` gave a Ki of 0.05 to 0.25 µM.

Compound `Cc1nc(NC(=O)NCCOCC2CC2)sc1C#Cc1ccnc(F)c1` came in with a Ki of less than 0.05 µM. In turn, `CCn1cc(CCNC(=O)Nc2nc(C)c(C#Cc3ccncc3)s2)cn1` had a Ki of less than 0.05 µM. Under `CCOC(=O)CCCC(=O)Nc1nc(C)c(C#Cc2ccncc2)s1` stands 0.05 to 0.25 µM; under `CCc1cnc(CCNC(=O)Nc2nc(C)c(C#Cc3ccncc3)s2)s1`, less than 0.05 µM; under `Cc1nc(NC(=O)NCCOc2cccc(Cl)c2)sc1C#Cc1ccncc1`, less than 0.05 µM.
